Experiments:
CFTR protein = test: CFTR ELISA, HNE-WT cultures; format: cell-based, human; settings: 10 μM, 24 hours, vs DMSO
Procedure: (§1) Primary human airway epithelial cells of nasal origin (HNEs) from CF donors homozygous for the F508del mutation (HNE CF) and non-CF donors (HNE WT) were purchased from Epithelix Sàrl (Geneva, Switzerland). The cells were cultured and differentiated as previously described (Pranke et al. (2017) Sci Rep. 7(1):7375). The primary cells were apically mucous washed for 30 minutes prior to treatment with the amplifier PTI-CH (1, 3, or 10 μM) and DMSO for 24 hours.
(§2) 96-well half area microplates (Greiner Bio-One, Monroe, N.C.) were coated with 3 μg/mL of CFTR antibody UNC596 overnight at 4° C. with gentle shaking. Wells were washed 3 times with TBS-T buffer, blocked with SuperBlock™ T20 Blocking Buffer (Thermo Fisher Scientific) and the washing step was repeated. The CFTR standard used was a fusion peptide (SEQ ID NO:1) that is recognized by UNC450 and UNC596 (GenScript, Piscataway, N.J.).
(§3) Serial dilutions of CFTR standard, cell lysates, and nasal brushing samples were prepared in IP lysis buffer. […] The assay was read on the EnVision-Multilabel Reader (Perkin Elmer, Waltham, Mass.).
(§4) To further confirm this finding, human nasal epithelial (HNE) cultures obtained from a non-CF (HNE-WT) or CF (HNE-F508del) donor were treated with and amplifier compound. Following 24-hour treatment period, filters were analyzed for either mRNA or protein analyses. […]

F508del CFTR protein = test: CFTR ELISA, HNE-CF (F508del) cultures; format: cell-based, human; settings: HNE-CF (homozygous F508del), 10 μM, 24 hours, vs DMSO
Procedure: as §1, §2, §3, §4

Question: `O=C(NCCCn1nncc1CO)c1cc(-c2ccccc2)on1` [PTI-CH] was tested. Which “increase in CFTR protein” value (CFTR protein) did it give?
Answer: 2.3 fold

Question: And the “increase in CFTR protein” value (F508del CFTR protein)?
Answer: 1.7 fold

— patent US20200340984A1, “METHODS OF QUANTIFYING CFTR PROTEIN EXPRESSION” (Proteostasis Therapeutics, Inc., priority 2017, published 2020)
